Here are results for eleven compounds from patent publication US8022228B2, “Crystal form of asenapine maleate” (N.V. Organon, priority 2005, dated 2011).

Molecules are shown by their SMILES. Where a name gives a salt, the structure may show the parent alone. Some results are limits rather than exact numbers.

For series [1] the following is noted: known crystalline form, Funke et al.; cited from earlier work.
Series [2] is described as follows: Particle size distribution by laser diffraction (LDS method). It is filed as physicochemical. Particulars: for D95 of crystallization sample: LDS; for D95 of micronization sample: after micronization, Chrispro MC200 jet mill, nitrogen, 7 bar. The method, then: LDS method. A dispersion liquid has been made consisting of (0.7 mg/ml) lecithin (used as a surfactant) in iso-octane saturated with asenapine maleate. The solution is stirred overnight. Subsequently the solution is filtered over a 0.22 μm filter. The samples were prepared by weighing approximately 30 mg asenapine maleate in a centrifugal tube and adding 2 ml of the dispersion liquid. Ultrasonic treatment of the samples was performed for 2 minutes in an ultrasonic bath (Transsonic 310). Subsequently, the particle size distribution of the sample was analyzed using laser diffraction (Malvern Mastersizer S, UK). The particle size distribution has been calculated using the Fraunhofer algorithm.

Series [3] in a line: Particle size observed in micrographs / microscopic picture. It is filed as physicochemical. The conditions noted are these: non-micronized crystallized batch.
The nature of series [4]: Micronization in jet mill, polymorphic form of the product by XRPD. It is filed as physicochemical. Particulars: polymorphic form after micronization at 7 bar. The protocol:
X-ray powder diffraction (XRPD) spectra were obtained on an […] Panalytical Reflection diffractometer in a Bragg-Brantano setup, Cu-Kα radiation, settings 45 kV and 40 mA together with an X'celerator detector. The slits used: anti-scatter slit 1°, divergence slit 1⁄2°, soller slits 0.02 rad. Measuring conditions: scan range 5-40°2-[…] (θ), step size 0.0167°2-[…]. The samples were measured on a rotating sample disk of Si with a speed of 15 rpm.

Consider `CN1CC2c3ccccc3Oc3ccc(Cl)cc3C2C1.O=C(O)/C=C\C(=O)O` (centres unmarked) [asenapine maleate], for which the “size of crystalline particles as observed in micrographs” value in series [1] was “over 100 μm”.

For the compound `CN1CC2c3ccccc3Oc3ccc(Cl)cc3C2C1` (centres unmarked) [batch C1, asenapine maleate], the “D95 of crystallization sample” value in series [2] (non-micronized crystallized batch, listed as C1) is 199 μm.

Regarding `CN1CC2c3ccccc3Oc3ccc(Cl)cc3C2C1` (centres unmarked) [batch C2, asenapine maleate], the “D95 of crystallization sample” value in series [2] (non-micronized crystallized batch, listed as C2) is listed as 221 μm.

For the compound `CN1CC2c3ccccc3Oc3ccc(Cl)cc3C2C1` (centres unmarked) [batch C5, asenapine maleate], the “average particle size by LDS” value in series [2] (non-micronized crystallized batch) is on record as around 30 μm. Also, in series [2] (non-micronized crystallized batch, listed as C5), the “D95 of crystallization sample” value is 30-100 μm. Besides, in series [3], the “particle size in microscopic picture” value is “up to 100 μm”.

For `CN1CC2c3ccccc3Oc3ccc(Cl)cc3C2C1` (centres unmarked) [batch M1, asenapine maleate], in series [2] (listed as M1), the “D95 of micronization sample” value was below 12 μm. The “polymorph of micronization sample” value in series [4] (listed as M1) was above 95% orthorhombic.

For the compound `CN1CC2c3ccccc3Oc3ccc(Cl)cc3C2C1` (centres unmarked) [batch M2, asenapine maleate], in series [2] (listed as M2), the “D95 of micronization sample” value was below 14 μm. Besides, in series [4] (listed as M2), the “polymorph of micronization sample” value is reported as above 95% monoclinic.

On to `CN1CC2c3ccccc3Oc3ccc(Cl)cc3C2C1` (centres unmarked) [batch M3, asenapine maleate], for which the “D95 of micronization sample” value in series [2] (listed as M3) is given as below 16 μm. The “polymorph of micronization sample” value in series [4] (listed as M3) is recorded as 80% orthorhombic, 20%.

As for `CN1CC2c3ccccc3Oc3ccc(Cl)cc3C2C1` (centres unmarked) [batch M4, asenapine maleate], the “D95 of micronization sample” value in series [2] (listed as M4) was below 9 μm. Besides, the “polymorph of micronization sample” value in series [4] (listed as M4) is recorded as above 95% orthorhombic.

For the compound `CN1CC2c3ccccc3Oc3ccc(Cl)cc3C2C1` (centres unmarked) [batch M5, asenapine maleate], in series [2] (listed as M5), the “D95 of micronization sample” value is below 6 μm. In series [4] (listed as M5), the “polymorph of micronization sample” value was above 95% orthorhombic.

On to `CN1CC2c3ccccc3Oc3ccc(Cl)cc3C2C1` (centres unmarked) [batch M6, asenapine maleate], for which the “D95 of micronization sample” value in series [2] (listed as M6) is recorded as below 10 μm. For the same compound, the “polymorph of micronization sample” value in series [4] (listed as M6) is reported as above 95% orthorhombic.

Turning to `CN1CC2c3ccccc3Oc3ccc(Cl)cc3C2C1` (centres unmarked) [batch M7, asenapine maleate], the “D95 of micronization sample” value in series [2] (listed as M7) is given as below 12 μm. Further, the “polymorph of micronization sample” value in series [4] (listed as M7) is on record as above 95% orthorhombic.
